# Reference: ChEMBL document CHEMBL1649305, “Novel protease inhibitors (PIs) containing macrocyclic components and 3(R),3a(S),6a(R)-bis-tetrahydrofuranylurethane that are potent against multi-PI-resistant HIV-1 variants in vitro” (Antimicrob Agents Chemother, 2010)
# The source made the active and inactive calls. The rule behind the calls is not given here.
# What was measured:
# [1] = system: Human immunodeficiency virus 1; test: Antiviral activity against HIV1 expressing protease L23I/E34Q/K43I/M46I/I50L/G51A/L63P/A71V/V82A/T91A mutant infected in human MT4 cells selected at 5 uM of atazanavir by p24 Gag protein production inhibition assay; conditions: Human immunodeficiency virus 1, MT4
# [2] = system: Human immunodeficiency virus 2; test: Antiviral activity against HIV2 ROD infected in human MT2 cells by MTT assay; assay type: functional, organism-based; conditions: Human immunodeficiency virus 2, ISOLATE ROD
# [3] = system: Human immunodeficiency virus 1; test: Antiviral activity against wild type HIV1 NL4-3 infected in human MT4 cells by p24 Gag protein production inhibition assay; conditions: Human immunodeficiency virus 1, NL4-3, MT4
# [4] = system: Human immunodeficiency virus 1; test: Antiviral activity against HIV1 NL4-3 infected in human MT4 cells at 1 uM after 20 passages by MTT assay; assay type: functional, organism-based
# [5] = system: Human immunodeficiency virus 1; test: Antiviral activity against HIV1 expressing protease L10I/G48V/I54V/A71V/I84V/L90M mutant infected in human MT4 cells selected at 5 uM of saquinavir by p24 Gag protein production inhibition assay; conditions: Human immunodeficiency virus 1, MT4
# MT2 [6] = test: Ratio of EC50 for HIV2 EHO to EC50 for HIV1 LAI infected in human MT2 cells; assay type: functional
# [7] = system: Human immunodeficiency virus 1; test: Antiviral activity against HIV1 expressing protease L10F/M46M,I/Q61Q mutant infected in human MT4 cells selected at 1 uM of GRL-396 by MTT assay; assay type: functional, organism-based; conditions: Human immunodeficiency virus 1, MT4
# [8] = system: Human immunodeficiency virus 1; test: Antiviral activity against HIV1 NL4-3 infected in human MT4 cells at 1 uM after 33 passages by MTT assay; assay type: functional, organism-based
# [9] = system: Human immunodeficiency virus 1; test: Antiviral activity against HIV1 expressing protease L10F/M46I/I54V/V82A mutant infected in human MT4 cells selected at 5 uM of Lopinavir by p24 Gag protein production inhibition assay; conditions: Human immunodeficiency virus 1, MT4
# [10] = system: Human immunodeficiency virus 1; test: Antiviral activity against HIV1 expressing protease L10F/M46I/T91S mutant infected in human MT4 cells selected at 1 uM of GRL-246 by MTT assay; assay type: functional, organism-based; conditions: Human immunodeficiency virus 1, MT4
# MT2 [11] = test: Ratio of EC50 for HIV2 ROD to EC50 for HIV1 LAI infected in human MT2 cells; assay type: functional
# [12] = Cytotoxicity against human MT2 cells after 7 days by MTT assay; assay type: cell-based
# [13] = system: Human immunodeficiency virus 1; test: Antiviral activity against HIV1 LAI infected in human MT2 cells by MTT assay; assay type: functional, organism-based; conditions: Human immunodeficiency virus 1, LAI
# [14] = system: Human immunodeficiency virus 1; test: Antiviral activity against HIV1 expressing protease L10F/D30N/K45I/A71V/T74S mutant infected in human MT4 cells selected at 5 uM of nelfinavir by MTT assay; assay type: functional, organism-based; conditions: Human immunodeficiency virus 1, MT4
# [15] = system: Human immunodeficiency virus 1; test: Antiviral activity against multidrug-resistant HIV1 isolate JSL containing L10I, L24I, I33F, E35D, M36I, N37S, M46L, I54V, R57K, I62V, L63P, A71V, G73S, and V82A mutant infected in human PHA-PBMC cells by p24 Gag protein production inhibition assay; conditions: Human immunodeficiency virus 1, isolate JSL
# [16] = system: Human immunodeficiency virus 1; test: Antiviral activity against wild type HIV1 ERS104 containing protease L63P mutant infected in human PHA-PBMC cells by p24 Gag protein production inhibition assay; conditions: Human immunodeficiency virus 1, ERS104, PBMC
# [17] = system: Human immunodeficiency virus 1; test: Antiviral activity against HIV1 expressing protease L10F/M46I/I50V/A71V/I84V/L90M mutant infected in human MT4 cells selected at 5 uM of amprenavir by p24 Gag protein production inhibition assay; conditions: Human immunodeficiency virus 1, MT4
# [18] = system: Human immunodeficiency virus 1; test: Antiviral activity against multidrug-resistant HIV1 isolate TM containing L10I, K14R, R41K, M46L, I54V, L63P, A71V, V82A, L90M, and I93L mutant infected in human PHA-PBMC cells by p24 Gag protein production inhibition assay; conditions: Human immunodeficiency virus 1, isolate TM
# [19] = system: Human immunodeficiency virus 1; test: Antiviral activity against HIV1 NL4-3 infected in human MT4 cells after 50 passages by MTT assay; assay type: functional, organism-based
# [20] = system: Human immunodeficiency virus 1; test: Antiviral activity against HIV1 NL4-3 infected in human MT4 cells at 1 uM after 37 passages by MTT assay; assay type: functional, organism-based
# [21] = system: Human immunodeficiency virus 1; test: Antiviral activity against multidrug-resistant HIV1 isolate B containing protease L10I, K14R, L33I, M36I,M46I, F53I, K55R, I62V, L63P, A71V, G73S, V82A, L90M, and I93L mutant infected in human PHA-PBMC cells by p24 Gag protein production inhibition assay; conditions: Human immunodeficiency virus 1, isolate B
# [22] = system: Human immunodeficiency virus 2; test: Antiviral activity against HIV2 EHO infected in human MT2 cells by MTT assay; assay type: functional, organism-based; conditions: Human immunodeficiency virus 2, EHO
# [23] = system: Human immunodeficiency virus 1; test: Antiviral activity against multidrug-resistant HIV1 isolate C containing protease L10I, I15V, K20R, L24I, M36I, M46L, I54V, I62V, L63P, K70Q, V82A, and L89M mutant infected in human PHA-PBMC cells by p24 Gag protein production inhibition assay; conditions: Human immunodeficiency virus 1, isolate C
# [24] = system: Human immunodeficiency virus 1; test: Antiviral activity against multidrug-resistant HIV1 isolate G containing L10I, V11I, T12E, I15V, L19I,R41K, M46L, L63P, A71T, V82A, and L90M mutant infected in human PHA-PBMC cells by p24 Gag protein production inhibition assay; conditions: Human immunodeficiency virus 1, isolate G
# [25] = system: Human immunodeficiency virus 1; test: Antiviral activity against HIV1 expressing protease L10I/L24I/M46I/V82I/I84V mutant infected in human MT4 cells selected after 50 passages of GRL-216 by MTT assay; assay type: functional, organism-based; conditions: Human immunodeficiency virus 1, MT4
# [26] = system: Human immunodeficiency virus 1; test: Antiviral activity against HIV1 expressing protease L10F/M46L/I50V/A71Vmutant infected in human MT4 cells selected at 1 uM of GRL-286 by MTT assay; assay type: functional, organism-based; conditions: Human immunodeficiency virus 1, MT4
# [27] = system: Human immunodeficiency virus 1; test: Antiviral activity against multidrug-resistant HIV1 isolate MM containing L10I, K43T, M46L, I54V, L63P, A71V, V82A, L90M, and Q92K mutant infected in human PHA-PBMC cells by p24 Gag protein production inhibition assay; conditions: Human immunodeficiency virus 1, isolate MM
# [28] = system: Human immunodeficiency virus 1; test: Antiviral activity against HIV1 NL4-3 infected in human MT4 cells at 0.26 uM after 50 passages by MTT assay; assay type: functional, organism-based
# [29] = system: Human immunodeficiency virus type 1 protease (Human immunodeficiency virus 1), Q72874 [L24I,V82I,I84V]; test: Inhibition of protease L24I/V82I/I84V[…] dimerization in HIV1 infected in COS7 cells at 0.1 uM by FRET based assay; assay type: cell-based; conditions: COS-7
# [30] = target: Protease (Human immunodeficiency virus 1) (UniProt Q9YQ12); test: Inhibition of protease dimerization in HIV1 infected in COS7 cells at 0.1 uM by FRET based assay; assay type: cell-based; conditions: COS-7
# [31] = system: Human immunodeficiency virus 1; test: Ratio of EC50 for multidrug-resistant HIV1 isolate JSL to EC50 for wild type HIV1 ERS104 containing protease […] infected in human PHA-PBMC cells
# [32] = Selectivity ratio of CC50 for human MT2 cells to EC50 for HIV1 LAI infected human MT2 cells; assay type: ADME, cell-based; conditions: MT2 cells (CC50) and HIV1 LAI infected MT2 cells (EC50)
# [33] = system: Human immunodeficiency virus 1; test: Ratio of EC50 for multidrug-resistant HIV1 isolate C containing protease L10I, I15V, K20R, L24I, M36I, M46L, I54V, I62V, L63P, K70Q, V82A, and L89M mutant to EC50 for wild type HIV1 ERS104 containing protease L63P mutant infected in human PHA-PBMC cells
# [34] = system: Human immunodeficiency virus 1; test: Ratio of EC50 for multidrug-resistant HIV1 isolate G containing L10I, V11I, T12E, I15V, L19I,R41K, M46L, L63P, A71T, V82A, and L90M mutant to EC50 for wild type HIV1 ERS104 containing protease […] infected in human PHA-PBMC cells; assay type: functional
Structure (SMILES),EC50 [1] [nM],EC50 [2] [nM],EC50 [3] [nM],EC50 [5] [nM],EC50 [7] [nM],EC50 [9] [nM],EC50 [10] [nM],CC50 at 168 h [12] [nM],EC50 [13] [nM],EC50 [14] [nM],EC50 [15] [nM],EC50 [16] [nM],EC50 [17] [nM],EC50 [18] [nM],EC50 [21] [nM],EC50 [22] [nM],EC50 [23] [nM],EC50 [24] [nM],EC50 [25] [nM],EC50 [26] [nM],further results
CC(C)CN(C[C@@H](O)[C@H](Cc1ccccc1)NC(=O)O[C@H]1CCOC1)S(=O)(=O)c1ccc(N)cc1,280,420,34,180,350,260,340,> 100000,24,28,620,30,> 1000,320,> 1000,120,370,430,260,> 1000,Activity [4]: inactive; Ratio EC50 (MT2 [6]): 3.53; Activity [8]: inactive; Ratio EC50 (MT2 [11]): 12.3; Activity [19]: inactive; Activity [20]: inactive; EC50 [27]: 210 nM
COc1ccc2c(c1)OCC/C=C\CCCCN(C[C@@H](O)[C@H](Cc1ccccc1)NC(=O)O[C@H]1CO[C@H]3OCC[C@H]31)S2(=O)=O,23,17,5,20,73,35,300,48800,2,40,73,5,> 1000,27,37,10,44,57,94,> 1000,Activity [28]: Active; inhibition [29]: Active; inhibition [30]: Active; EC50 [27]: 33 nM
COc1ccc2c(c1)OCCC/C=C\CCCCN(C[C@@H](O)[C@H](Cc1ccccc1)NC(=O)O[C@H]1CO[C@H]3OCC[C@H]31)S2(=O)=O,30,25,9,46,250,350,330,33100,4,41,210,7,> 1000,72,89,18,29,28,190,> 1000,Activity [4]: inactive; Activity [8]: inactive; Ratio EC50 [31]: 15; selectivity ratio [32]: 8280; Activity [19]: inactive; Activity [20]: inactive; Ratio EC50 [33]: 4; Ratio EC50 [34]: 4; inhibition [30]: Active; EC50 [27]: 55 nM
